Measurements reported in ChEMBL document CHEMBL1145498, “A systematic interaction map of validated kinase inhibitors with Ser/Thr kinases” (Proc Natl Acad Sci U S A, 2007).

Legend:
[1] = target: Calcium/calmodulin-dependent protein kinase type 1G (Homo sapiens) (UniProt Q96NX5)
[2] = target: Calcium/calmodulin-dependent protein kinase type II subunit beta (Homo sapiens) (UniProt Q13554)
[3] = target: Cyclin-dependent kinase-like 1 (Homo sapiens) (UniProt Q00532)
[4] = target: Casein kinase I isoform gamma-1 (Homo sapiens) (UniProt Q9HCP0)
Casein kinase I isoform gamma-1 (Homo sapiens), sequence (Q9HCP0 whole entry, looked up, canonical isoform): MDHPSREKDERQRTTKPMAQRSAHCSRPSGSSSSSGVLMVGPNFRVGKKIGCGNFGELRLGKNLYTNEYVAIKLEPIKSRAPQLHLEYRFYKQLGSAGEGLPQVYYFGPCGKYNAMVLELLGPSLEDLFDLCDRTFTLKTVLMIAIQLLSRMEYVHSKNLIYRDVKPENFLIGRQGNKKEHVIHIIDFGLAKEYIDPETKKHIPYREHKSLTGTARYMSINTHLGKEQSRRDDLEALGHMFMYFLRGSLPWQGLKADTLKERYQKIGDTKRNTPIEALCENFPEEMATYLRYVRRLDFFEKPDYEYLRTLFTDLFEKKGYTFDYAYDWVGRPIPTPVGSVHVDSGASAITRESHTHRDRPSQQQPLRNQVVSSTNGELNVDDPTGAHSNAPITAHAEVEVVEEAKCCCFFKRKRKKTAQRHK

[5] = target: Death-associated protein kinase 3 (Homo sapiens) (UniProt O43293)
Death-associated protein kinase 3 (Homo sapiens), sequence (O43293 whole entry, looked up): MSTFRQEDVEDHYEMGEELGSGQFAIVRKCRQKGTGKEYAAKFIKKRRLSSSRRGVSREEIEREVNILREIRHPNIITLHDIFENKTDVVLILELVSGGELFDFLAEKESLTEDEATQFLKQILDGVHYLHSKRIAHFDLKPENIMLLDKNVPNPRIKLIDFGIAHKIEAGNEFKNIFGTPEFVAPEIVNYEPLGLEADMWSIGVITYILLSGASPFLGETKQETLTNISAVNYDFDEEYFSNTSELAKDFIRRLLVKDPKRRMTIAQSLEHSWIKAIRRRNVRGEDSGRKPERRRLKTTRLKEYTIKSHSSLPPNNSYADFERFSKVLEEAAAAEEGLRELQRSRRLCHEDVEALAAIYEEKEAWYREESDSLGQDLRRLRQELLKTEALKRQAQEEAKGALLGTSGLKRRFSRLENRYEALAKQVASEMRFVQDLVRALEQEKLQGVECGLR

[6] = target: Dual specificity mitogen-activated protein kinase kinase 2 (Homo sapiens, UniProt P36507)
[7] = target: T1, Dual specificity mitogen-activated protein kinase kinase 6 (Homo sapiens) (UniProt P52564)
T1 sequence (whole entry): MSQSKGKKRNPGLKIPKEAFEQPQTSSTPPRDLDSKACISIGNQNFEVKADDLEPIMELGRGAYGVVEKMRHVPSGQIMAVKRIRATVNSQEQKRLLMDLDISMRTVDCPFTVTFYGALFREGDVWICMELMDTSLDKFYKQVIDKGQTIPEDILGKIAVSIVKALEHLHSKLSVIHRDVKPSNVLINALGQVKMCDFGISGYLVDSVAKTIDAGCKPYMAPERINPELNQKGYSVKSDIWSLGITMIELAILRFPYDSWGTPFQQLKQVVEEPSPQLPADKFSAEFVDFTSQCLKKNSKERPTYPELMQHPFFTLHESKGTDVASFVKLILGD

[8] = target: T2, Mitogen-activated protein kinase kinase kinase 5 (Homo sapiens) (UniProt Q99683)
T2 sequence (whole entry): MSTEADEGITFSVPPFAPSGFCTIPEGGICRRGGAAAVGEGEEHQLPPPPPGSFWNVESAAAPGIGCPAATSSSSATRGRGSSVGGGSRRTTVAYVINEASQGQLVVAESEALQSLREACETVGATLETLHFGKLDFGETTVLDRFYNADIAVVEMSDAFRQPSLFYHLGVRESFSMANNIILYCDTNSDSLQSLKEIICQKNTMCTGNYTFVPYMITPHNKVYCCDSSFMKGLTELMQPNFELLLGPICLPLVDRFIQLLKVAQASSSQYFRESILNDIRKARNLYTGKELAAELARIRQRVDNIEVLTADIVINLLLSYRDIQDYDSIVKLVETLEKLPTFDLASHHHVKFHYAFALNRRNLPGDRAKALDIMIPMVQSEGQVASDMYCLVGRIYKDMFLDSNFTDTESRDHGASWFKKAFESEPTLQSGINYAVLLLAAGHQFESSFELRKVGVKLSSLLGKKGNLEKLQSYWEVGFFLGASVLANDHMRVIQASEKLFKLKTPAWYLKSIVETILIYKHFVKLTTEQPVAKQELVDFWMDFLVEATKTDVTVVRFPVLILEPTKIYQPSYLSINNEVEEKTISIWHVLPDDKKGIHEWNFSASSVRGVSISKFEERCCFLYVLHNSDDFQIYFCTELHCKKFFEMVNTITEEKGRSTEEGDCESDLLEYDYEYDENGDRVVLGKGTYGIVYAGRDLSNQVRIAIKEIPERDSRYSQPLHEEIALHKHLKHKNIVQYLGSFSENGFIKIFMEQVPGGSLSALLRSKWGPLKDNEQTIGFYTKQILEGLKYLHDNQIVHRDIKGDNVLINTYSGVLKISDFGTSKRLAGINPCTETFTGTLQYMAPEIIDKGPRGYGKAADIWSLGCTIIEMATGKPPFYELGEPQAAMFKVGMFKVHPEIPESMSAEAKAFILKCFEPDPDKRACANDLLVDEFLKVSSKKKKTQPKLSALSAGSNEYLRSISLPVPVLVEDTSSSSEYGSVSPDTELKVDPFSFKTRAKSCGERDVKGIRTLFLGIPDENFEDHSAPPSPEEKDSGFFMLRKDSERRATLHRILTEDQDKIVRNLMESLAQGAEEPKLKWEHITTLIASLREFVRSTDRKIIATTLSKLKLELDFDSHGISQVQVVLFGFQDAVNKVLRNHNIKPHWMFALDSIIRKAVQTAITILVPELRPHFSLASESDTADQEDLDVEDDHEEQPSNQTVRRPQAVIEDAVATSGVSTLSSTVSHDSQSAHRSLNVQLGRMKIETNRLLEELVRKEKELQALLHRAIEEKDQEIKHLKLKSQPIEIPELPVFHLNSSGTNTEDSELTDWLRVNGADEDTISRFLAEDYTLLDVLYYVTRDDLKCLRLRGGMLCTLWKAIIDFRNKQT

[9] = target: Mitogen-activated protein kinase 6 (Homo sapiens) (UniProt Q16659)
Mitogen-activated protein kinase 6 (Homo sapiens), sequence (Q16659 whole entry): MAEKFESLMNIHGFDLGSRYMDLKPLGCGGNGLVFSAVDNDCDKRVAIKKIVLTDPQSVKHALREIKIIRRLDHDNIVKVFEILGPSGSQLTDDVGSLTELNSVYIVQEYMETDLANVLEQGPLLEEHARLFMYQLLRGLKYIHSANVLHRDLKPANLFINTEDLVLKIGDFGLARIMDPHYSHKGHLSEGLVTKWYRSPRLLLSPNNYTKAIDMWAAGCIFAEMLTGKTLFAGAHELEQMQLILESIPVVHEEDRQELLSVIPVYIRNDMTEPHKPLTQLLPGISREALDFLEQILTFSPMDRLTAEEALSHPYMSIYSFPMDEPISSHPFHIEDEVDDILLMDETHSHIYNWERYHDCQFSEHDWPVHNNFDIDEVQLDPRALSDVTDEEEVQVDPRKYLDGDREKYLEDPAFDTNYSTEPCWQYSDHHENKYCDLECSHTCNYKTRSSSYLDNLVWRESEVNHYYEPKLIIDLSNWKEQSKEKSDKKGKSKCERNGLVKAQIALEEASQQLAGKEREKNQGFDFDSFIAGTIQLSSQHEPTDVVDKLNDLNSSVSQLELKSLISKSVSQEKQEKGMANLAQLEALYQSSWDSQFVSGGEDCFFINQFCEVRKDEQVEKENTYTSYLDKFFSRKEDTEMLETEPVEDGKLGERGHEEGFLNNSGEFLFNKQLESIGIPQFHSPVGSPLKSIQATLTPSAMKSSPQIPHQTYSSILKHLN

[10] = target: Serine/threonine-protein kinase OSR1 (Homo sapiens) (UniProt O95747)
Serine/threonine-protein kinase OSR1 (Homo sapiens), sequence (O95747 2-527 limits assumed): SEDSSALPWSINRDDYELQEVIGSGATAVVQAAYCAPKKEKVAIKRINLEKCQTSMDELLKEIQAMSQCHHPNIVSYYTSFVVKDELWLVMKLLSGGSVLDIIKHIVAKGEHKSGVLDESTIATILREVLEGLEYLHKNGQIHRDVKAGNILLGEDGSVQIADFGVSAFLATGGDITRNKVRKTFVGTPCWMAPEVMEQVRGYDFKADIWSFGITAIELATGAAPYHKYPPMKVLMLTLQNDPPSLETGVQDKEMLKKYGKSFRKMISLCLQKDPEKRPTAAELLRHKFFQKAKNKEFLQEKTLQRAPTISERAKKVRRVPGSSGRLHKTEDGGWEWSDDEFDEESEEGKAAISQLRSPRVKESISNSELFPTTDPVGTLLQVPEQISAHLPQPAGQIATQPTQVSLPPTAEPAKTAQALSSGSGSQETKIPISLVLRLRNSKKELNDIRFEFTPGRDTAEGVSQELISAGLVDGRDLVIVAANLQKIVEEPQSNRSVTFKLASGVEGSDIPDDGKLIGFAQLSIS

[11] = target: Serine/threonine-protein kinase RIO2 (Homo sapiens) (UniProt Q9BVS4)
[12] = target: Ribosomal protein S6 kinase alpha-3 (Homo sapiens) (UniProt P51812)
Ribosomal protein S6 kinase alpha-3 (Homo sapiens), sequence (P51812 whole entry): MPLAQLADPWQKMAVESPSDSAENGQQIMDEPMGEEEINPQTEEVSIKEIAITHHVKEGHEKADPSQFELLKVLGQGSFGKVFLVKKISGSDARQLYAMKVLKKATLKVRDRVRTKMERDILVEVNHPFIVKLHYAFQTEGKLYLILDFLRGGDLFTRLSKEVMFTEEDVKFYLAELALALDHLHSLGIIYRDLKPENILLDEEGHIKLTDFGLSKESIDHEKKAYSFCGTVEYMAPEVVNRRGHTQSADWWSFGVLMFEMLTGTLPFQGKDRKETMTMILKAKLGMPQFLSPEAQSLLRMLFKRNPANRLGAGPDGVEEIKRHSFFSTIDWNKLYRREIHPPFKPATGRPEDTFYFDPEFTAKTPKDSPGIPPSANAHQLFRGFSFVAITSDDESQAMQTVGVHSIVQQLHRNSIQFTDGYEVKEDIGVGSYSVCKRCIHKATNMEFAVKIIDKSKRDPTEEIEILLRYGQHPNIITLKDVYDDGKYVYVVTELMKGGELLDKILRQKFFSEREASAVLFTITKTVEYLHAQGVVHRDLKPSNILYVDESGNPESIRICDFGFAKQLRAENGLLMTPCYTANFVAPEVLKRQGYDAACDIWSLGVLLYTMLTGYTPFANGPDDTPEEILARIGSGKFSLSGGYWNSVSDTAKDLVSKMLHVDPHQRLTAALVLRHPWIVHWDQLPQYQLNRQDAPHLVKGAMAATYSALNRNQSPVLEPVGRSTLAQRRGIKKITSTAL

[13] = target: T3, Serine/threonine-protein kinase 17A (Homo sapiens) (UniProt Q9UEE5)
T3 sequence (whole entry): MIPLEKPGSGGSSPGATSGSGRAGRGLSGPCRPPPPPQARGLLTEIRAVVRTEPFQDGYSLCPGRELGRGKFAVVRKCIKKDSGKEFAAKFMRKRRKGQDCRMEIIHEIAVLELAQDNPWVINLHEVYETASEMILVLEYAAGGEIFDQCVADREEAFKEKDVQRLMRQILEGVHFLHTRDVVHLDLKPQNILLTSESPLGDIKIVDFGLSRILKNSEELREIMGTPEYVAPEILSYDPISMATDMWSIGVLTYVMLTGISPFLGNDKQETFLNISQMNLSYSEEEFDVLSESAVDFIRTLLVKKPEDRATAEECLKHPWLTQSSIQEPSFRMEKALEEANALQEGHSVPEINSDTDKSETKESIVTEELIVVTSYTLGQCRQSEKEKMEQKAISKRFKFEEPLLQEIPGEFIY

[14] = target: Serine/threonine-protein kinase 26 (Homo sapiens) (UniProt Q9P289)
Serine/threonine-protein kinase 26 (Homo sapiens), sequence (Q9P289 2-416 limits assumed): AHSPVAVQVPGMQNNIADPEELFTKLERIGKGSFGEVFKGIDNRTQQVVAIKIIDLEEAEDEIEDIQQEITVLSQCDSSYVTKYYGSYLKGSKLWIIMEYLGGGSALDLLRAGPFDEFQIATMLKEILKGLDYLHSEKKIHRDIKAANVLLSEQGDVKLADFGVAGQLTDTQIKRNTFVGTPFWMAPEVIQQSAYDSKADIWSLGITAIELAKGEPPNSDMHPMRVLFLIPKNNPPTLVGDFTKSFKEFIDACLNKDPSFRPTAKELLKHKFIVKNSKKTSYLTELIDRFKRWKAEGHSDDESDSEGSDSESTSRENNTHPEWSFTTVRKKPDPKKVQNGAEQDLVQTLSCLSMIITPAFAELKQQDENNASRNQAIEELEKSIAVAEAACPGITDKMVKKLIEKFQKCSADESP

Calcium/calmodulin-dependent protein kinase type 1G (Homo sapiens), sequence (Q96NX5 whole entry): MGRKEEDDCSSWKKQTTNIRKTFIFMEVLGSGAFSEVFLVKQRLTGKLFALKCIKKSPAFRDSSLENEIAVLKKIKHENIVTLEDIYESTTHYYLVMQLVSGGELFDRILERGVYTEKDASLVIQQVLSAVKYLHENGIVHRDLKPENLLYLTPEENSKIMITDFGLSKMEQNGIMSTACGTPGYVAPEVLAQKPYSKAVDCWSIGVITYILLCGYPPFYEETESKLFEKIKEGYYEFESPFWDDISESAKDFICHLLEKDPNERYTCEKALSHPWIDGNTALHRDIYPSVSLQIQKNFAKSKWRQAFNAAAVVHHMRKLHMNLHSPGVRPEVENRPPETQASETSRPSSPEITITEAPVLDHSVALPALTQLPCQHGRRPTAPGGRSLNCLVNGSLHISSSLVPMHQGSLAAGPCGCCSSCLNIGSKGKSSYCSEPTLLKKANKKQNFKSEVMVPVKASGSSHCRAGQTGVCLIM
Cyclin-dependent kinase-like 1 (Homo sapiens), sequence (Q00532 whole entry, canonical isoform): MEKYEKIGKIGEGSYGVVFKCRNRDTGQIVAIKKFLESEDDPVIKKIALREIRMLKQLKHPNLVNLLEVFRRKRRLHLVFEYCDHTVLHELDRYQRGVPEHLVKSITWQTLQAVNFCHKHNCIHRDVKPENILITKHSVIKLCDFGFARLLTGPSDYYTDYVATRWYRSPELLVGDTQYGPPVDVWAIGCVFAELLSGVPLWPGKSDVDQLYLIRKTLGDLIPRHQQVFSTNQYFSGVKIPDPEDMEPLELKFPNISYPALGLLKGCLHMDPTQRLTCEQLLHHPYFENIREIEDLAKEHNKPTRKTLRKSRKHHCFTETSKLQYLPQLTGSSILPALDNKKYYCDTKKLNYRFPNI
Calcium/calmodulin-dependent protein kinase type II subunit beta (Homo sapiens), sequence (Q13554 whole entry): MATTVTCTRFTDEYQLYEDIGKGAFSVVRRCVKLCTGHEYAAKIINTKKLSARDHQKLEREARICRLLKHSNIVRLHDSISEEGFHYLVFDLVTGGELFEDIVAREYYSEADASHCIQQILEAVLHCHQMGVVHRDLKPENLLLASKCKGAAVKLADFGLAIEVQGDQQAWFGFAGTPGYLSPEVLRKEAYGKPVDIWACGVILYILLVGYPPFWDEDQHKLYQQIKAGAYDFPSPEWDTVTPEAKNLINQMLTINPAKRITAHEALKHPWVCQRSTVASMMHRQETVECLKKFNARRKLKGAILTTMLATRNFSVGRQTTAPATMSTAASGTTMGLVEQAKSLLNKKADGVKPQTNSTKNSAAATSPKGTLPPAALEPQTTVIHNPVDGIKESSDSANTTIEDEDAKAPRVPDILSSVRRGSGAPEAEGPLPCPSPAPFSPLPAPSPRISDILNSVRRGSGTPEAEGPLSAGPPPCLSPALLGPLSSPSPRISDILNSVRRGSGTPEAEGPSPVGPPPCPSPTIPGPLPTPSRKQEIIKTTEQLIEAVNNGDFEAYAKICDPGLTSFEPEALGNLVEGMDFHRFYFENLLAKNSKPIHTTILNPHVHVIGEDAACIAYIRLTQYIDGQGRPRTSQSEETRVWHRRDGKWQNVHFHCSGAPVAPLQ

| SMILES | ΔTm [1] [°C] | ΔTm [2] [°C] | ΔTm [3] [°C] | ΔTm [4] [°C] | ΔTm [6] [°C] | ΔTm [7] [°C] | ΔTm [8] [°C] | ΔTm [9] [°C] | ΔTm [10] [°C] | ΔTm [11] [°C] | ΔTm [12] [°C] | ΔTm [13] [°C] | ΔTm [14] [°C] | ΔTm [5] [°C] |
| --- | --- | --- | --- | --- | --- | --- | --- | --- | --- | --- | --- | --- | --- | --- |
| Cn1cnc2c(NCc3ccccc3)nc(NCCO)nc21 [OLOMOUCINE] | 0 | 0.2 | 0 | 0.1 | -0.4 | 0 | 0.1 | 0.2 | 0.2 | 0.3 | 0.1 | -0.1 | 0 | -0.1 |
| O=S(=O)(c1cccc2c(Cl)cccc12)N1CCCNCC1 | -0.1 | 0.3 | 0.3 | 0.2 | -0.3 | 0 | 0.6 | 0 | -0.5 | 0.3 | 0.5 | 0.7 | -0.1 | 2.5 |
| N#C/C(=C(/N)Sc1ccc(N)cc1)c1ccccc1C(F)(F)F | 0.2 | 0.5 | -0.2 | 0.5 | 0.8 | 0.2 | -0.1 | 0.4 | 0.5 | -0.2 | 0 | 0.4 | 1 | -0.2 |
| O=C1NC(=O)C(c2cn(CCCn3ccnc3)c3ccccc23)=C1Nc1ccccc1 | 1 | 0.7 | 0.3 | 0.6 | 0.4 | 0.9 | 0.6 | 0.6 | 0.2 | 6.1 | 0.5 | 0.5 | 3.1 | 1.3 |
| NC(=O)c1ccc2[nH]c(-c3ccc(Oc4ccc(Cl)cc4)cc3)nc2c1 | 2.6 | 0.5 | 0.1 | 1.7 | -1.2 | 0.4 | 1 | 0.5 | 0.8 | 2.4 | 0.7 | 0.7 | 1.3 | 1.2 |
| CCCCc1c(-c2ccc(O)cc2)[nH]c2nccnc12 [ALOISINE A] | 0.6 | 0.5 | 0.1 | 3 | 2.1 | 0.7 | 0.4 | 3 | 1.6 | -1.8 | 3 | 2.9 | 4.1 | 2.3 |

Second part, led by results:

| ΔTm [1] [°C] | ΔTm [2] [°C] | ΔTm [3] [°C] | ΔTm [4] [°C] | ΔTm [6] [°C] | ΔTm [7] [°C] | ΔTm [8] [°C] | ΔTm [9] [°C] | ΔTm [10] [°C] | ΔTm [11] [°C] | ΔTm [12] [°C] | ΔTm [13] [°C] | ΔTm [14] [°C] | SMILES | ΔTm [5] [°C] |
| --- | --- | --- | --- | --- | --- | --- | --- | --- | --- | --- | --- | --- | --- | --- |
| 0.4 | 0.9 | 0.4 | -0.2 | 1.8 | 0.5 | 5.8 | 0.2 | 1 | 4.5 | 2.8 | 8.8 | 0.4 | Cc1nc2sccn2c(=O)c1CCN1CCC(=C(c2ccccc2)c2ccc(F)cc2)CC1 | 4.2 |
| 1.6 | -0.3 | -0.1 | 0.7 | 0.7 | 0.3 | 4 | -0.3 | 0.6 | -0.2 | 2.2 | 1.3 | -0.2 | COc1cc2c(cc1OC)-c1n[nH]c(Nc3cccc(F)c3)c1C2 | 0.2 |
| 0.1 | 0.7 | -0.3 | 1 | 0.1 | 0.2 | 0.8 | 1.5 | 1.9 | 3.6 | 1.8 | 3 | 3.2 | COc1cc(O)c2c(c1)oc(=O)c1c3cc(O)c(O)cc3oc21 [WEDELOLACTONE] | 0 |
| 0.2 | 2.3 | 0 | 0.9 | 7 | 0.3 | 1.2 | 0.6 | 2.2 | -6.4 | 7.5 | 3.3 | 1 | CN(C)S(=O)(=O)c1ccc2c(c1)/C(=C/c1cc3c([nH]1)CCCC3)C(=O)N2 | 0.3 |
| 0.3 | 0.6 | 0.1 | 0.8 | -0.4 | 1 | 1.4 | 0.1 | 0.8 | 2.9 | 0.8 | 1 | 3.4 | c1ccc(-c2n[nH]c3c2oc2ccccc23)cc1 | -0.9 |
| 0.6 | 0.9 | 0.7 | 1 | 0.1 | 1.1 | 0.9 | -0.2 | 2.4 | 0.3 | 7.8 | 1.3 | 1.7 | CN(C)CCCn1cc(C2=C(c3c[nH]c4ccccc34)C(=O)NC2=O)c2ccccc21 [GF-109203] | 2.8 |
| 3.4 | 1.2 | 3.7 | 4.3 | 5.3 | 14.6 | 2.6 | 1.2 | 1.4 | 7.3 | 5.2 | 1.3 | 5.4 | O=C1NC(=O)c2c1c1c3ccccc3[nH]c1n1cncc21 [ISOGRANULATIMIDE] | 5.3 |
| 0.4 | 0.4 | -0.4 | -0.1 | 0.4 | 0 | -0.4 | 0.4 | 2 | 0.2 | 0.2 | 0.6 | 1 | Cc1ccc(NC(=O)c2cccc(N(C)C)c2)cc1NC(=O)c1ccc(O)cc1 | -0.4 |
